Literature values as cited in US7314641B1, “High-bioavailability particle coated with fungicide and polymer” (Everest Pharm. Industrial Co., Ltd., priority 2007, dated 2008).

Tests used:
[1] = prior art statement on the compound of U.S. Pat. No. 4,267,179

Metabolic period in human beings: 96 h | water solubility [1]: not water soluble
Structure (SMILES): CCC(C)n1ncn(-c2ccc(N3CCN(c4ccc(OCC5COC(Cn6cncn6)(c6ccc(Cl)cc6Cl)O5)cc4)CC3)cc2)c1=O (single isomer, unassigned; (+)) [itraconazole, (+)-cis-4-[4-[4-[-4[[2-(2,4-dichlorophenyl)-2-(1H-1,2,4-triazol-1-ylmethyl)-1,3-dioxolan-4-yl]methoxy]phenyl]-1-piperazinyl]phenyl-2,4-dihydro-2-1(1-methylpropyl)-3H-1,2,4-triazol-3-one]
